Measured values from patent publication US12527886B2, “Radiopharmaceuticals and composition for thrombus imaging” (THE ASAN FOUNDATION, priority 2020, dated 2026).

Assays:
glycoprotein IIb/IIIa = target: T1, glycoprotein IIb/IIIa (Rattus norvegicus, UniProt A0A8I6GGN2+Q8R2H2); test: Glycoprotein IIb/IIIa specific uptake in thrombotic disease model, gamma counter / microSPECT; type: in vivo, rats
T1 construct: a disease model in which a thrombus was formed with glycoprotein IIb/IIIa overexpressed; from tissue; host or cells: in vivo rat carotid artery thrombus (ferric chloride model)
From the text: After 6-week-old rats were anesthetized to make a thrombotic disease model, the carotid artery was secured by opening the skin on the carotid artery side. Then, a filter paper soaked with a 5% ferric chloride solution was exposed on the artery, and then washed three times or more with physiological saline, and the incised skin was sutured again to make a model. […]

[1] = Stability of Tc-99m labeled compound by radioTLC; type: physicochemical; details: for Eluent A / Eluent B: in % (unit assumed)
Experimental: (§1) After 2.0 mg of GP-104 was dissolved in 1.8 mL of water for injection and 0.2 mL of ethanol, the resulting solution was allowed to stand with a pH of about 5 at room temperature for 10 minutes when 20 μL of SnCl2 (15 mg/mL) and 2 mL of Tc-99m were added thereto, and the reaction was terminated by adjusting the pH to 7 using a NaOH solution. Stability up to 4 hours was confirmed by radioTLC under conditions of pH 5 and pH 7, respectively, and the results are summarized in the following Table 1. (TLC analysis conditions: iTLC was used, Eluent A: methyl ethyl ketone 100%, Eluent B: pyridine:acetic acid:purified water=3:5:15, and purity calculation: Eluent A−Eluent B)
as §1, with “ethanol, pH was adjusted to about 5 and” for “ethanol,”, “stand” for “stand with a pH of about 5”, “(15 mg/mL), 20 μL of cysteine (10” for “(15”, “Table 2.” for “Table 1.”
(§2) After 2.0 mg of GP-105 was dissolved in 1.8 mL of water for injection and 0.2 mL of ethanol, the pH was adjusted to about 5 and the resulting solution was allowed to stand at room temperature for 10 minutes when 20 μL of SnCl2 (15 mg/mL) and 2 mL of Tc-99m were added thereto, and the reaction was terminated by adjusting the pH to 7 using a NaOH solution. Stability until 4 hours under conditions of pH 5 and pH 7 was each confirmed by radioTLC. (TLC analysis conditions: iTLC was used, Eluent A: methyl ethyl ketone 100%, Eluent B: pyridine:acetic acid:purified water=3:5:15, and purity calculation: Eluent A−Eluent B)
as §2, with “ethanol,” for “ethanol, the”, “(15 mg/mL), 20 μL of cysteine (10” for “(15”

[2] = gamma counter, sacrificed at the 2nd hour
[3] = Ex 4-1, no cysteine, pH 5, 0 hour
[4] = Ex 4-1, no cysteine, pH 5, 0.5 hours
[5] = Ex 4-1, no cysteine, pH 5, 1.0 hour
[6] = Ex 4-1, no cysteine, pH 5, 1.5 hours
[7] = Ex 4-1, no cysteine, pH 5, 2.0 hours
[8] = Ex 4-1, no cysteine, pH 5, 3.0 hours
[9] = Ex 4-1, no cysteine, pH 5, 4.0 hours
[10] = Ex 4-1, no cysteine, pH 7, 0 hour
[11] = Ex 4-1, no cysteine, pH 7, 0.5 hours
[12] = Ex 4-1, no cysteine, pH 7, 1.0 hour
[13] = Ex 4-1, no cysteine, pH 7, 1.5 hours
[14] = Ex 4-1, no cysteine, pH 7, 2.0 hours
[15] = Ex 4-1, no cysteine, pH 7, 3.0 hours
[16] = Ex 4-1, no cysteine, pH 7, 4.0 hours
[17] = Ex 4-2, cysteine, pH 5, 0.5 hours
[18] = Ex 4-2, cysteine, pH 5, 1.0 hour
[19] = Ex 4-2, cysteine, pH 5, 1.5 hours
[20] = Ex 4-2, cysteine, pH 5, 2.0 hours
[21] = Ex 4-2, cysteine, pH 5, 3.0 hours
[22] = Ex 4-2, cysteine, pH 5, 4.0 hours
[23] = Ex 4-2, cysteine, pH 7, 0.5 hours
[24] = Ex 4-2, cysteine, pH 7, 1.0 hour
[25] = Ex 4-2, cysteine, pH 7, 1.5 hours
[26] = Ex 4-2, cysteine, pH 7, 2.0 hours
[27] = Ex 4-2, cysteine, pH 7, 3.0 hours
[28] = Ex 4-2, cysteine, pH 7, 4.0 hours

T1 sequence (A0A8I6GGN2 32-1037): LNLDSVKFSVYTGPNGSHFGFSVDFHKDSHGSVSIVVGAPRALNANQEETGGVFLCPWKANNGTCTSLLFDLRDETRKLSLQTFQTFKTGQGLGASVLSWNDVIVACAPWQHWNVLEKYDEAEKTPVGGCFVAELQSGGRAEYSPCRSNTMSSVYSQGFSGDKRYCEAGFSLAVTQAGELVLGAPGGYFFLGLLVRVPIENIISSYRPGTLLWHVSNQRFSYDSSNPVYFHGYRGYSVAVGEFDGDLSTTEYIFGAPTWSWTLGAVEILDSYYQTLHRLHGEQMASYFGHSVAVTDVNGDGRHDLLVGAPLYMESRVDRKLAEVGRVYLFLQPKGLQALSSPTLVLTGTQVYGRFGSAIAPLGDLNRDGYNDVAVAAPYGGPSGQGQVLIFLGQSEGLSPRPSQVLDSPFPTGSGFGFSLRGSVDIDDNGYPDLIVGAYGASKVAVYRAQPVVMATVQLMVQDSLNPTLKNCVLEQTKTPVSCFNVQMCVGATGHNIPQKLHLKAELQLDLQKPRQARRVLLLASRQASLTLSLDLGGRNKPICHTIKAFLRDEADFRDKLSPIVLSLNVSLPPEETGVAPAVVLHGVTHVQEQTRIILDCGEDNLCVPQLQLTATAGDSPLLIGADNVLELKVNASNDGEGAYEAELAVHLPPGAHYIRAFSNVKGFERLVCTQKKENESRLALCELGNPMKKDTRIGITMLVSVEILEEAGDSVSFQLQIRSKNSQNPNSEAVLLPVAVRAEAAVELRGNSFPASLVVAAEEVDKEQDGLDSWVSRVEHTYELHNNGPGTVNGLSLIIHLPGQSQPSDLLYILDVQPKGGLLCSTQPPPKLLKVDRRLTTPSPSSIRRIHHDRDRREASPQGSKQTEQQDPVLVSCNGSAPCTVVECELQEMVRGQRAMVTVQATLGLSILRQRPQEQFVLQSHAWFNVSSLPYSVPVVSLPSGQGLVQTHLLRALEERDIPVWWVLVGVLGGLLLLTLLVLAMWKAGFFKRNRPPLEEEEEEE
T1 sequence (Q8R2H2 26-787): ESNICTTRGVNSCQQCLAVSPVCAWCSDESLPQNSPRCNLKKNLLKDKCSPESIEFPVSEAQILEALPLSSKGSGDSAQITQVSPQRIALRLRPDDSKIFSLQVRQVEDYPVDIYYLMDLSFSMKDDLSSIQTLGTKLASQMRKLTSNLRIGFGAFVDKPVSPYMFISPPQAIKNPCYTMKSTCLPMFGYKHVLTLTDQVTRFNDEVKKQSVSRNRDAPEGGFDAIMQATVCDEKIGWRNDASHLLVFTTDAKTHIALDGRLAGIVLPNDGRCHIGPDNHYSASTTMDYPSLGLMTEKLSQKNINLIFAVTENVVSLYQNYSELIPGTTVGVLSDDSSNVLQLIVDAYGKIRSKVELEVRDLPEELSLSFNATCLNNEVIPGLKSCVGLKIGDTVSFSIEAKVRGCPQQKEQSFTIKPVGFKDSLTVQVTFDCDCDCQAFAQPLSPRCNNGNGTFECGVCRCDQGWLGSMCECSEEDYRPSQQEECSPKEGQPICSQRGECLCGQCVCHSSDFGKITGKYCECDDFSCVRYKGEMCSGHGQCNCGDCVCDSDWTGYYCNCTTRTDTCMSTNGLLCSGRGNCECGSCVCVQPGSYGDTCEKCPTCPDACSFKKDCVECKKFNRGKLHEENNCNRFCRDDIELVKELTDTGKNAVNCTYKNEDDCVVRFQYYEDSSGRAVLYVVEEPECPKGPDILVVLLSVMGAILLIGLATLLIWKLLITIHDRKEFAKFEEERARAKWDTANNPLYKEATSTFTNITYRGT

SMILES: O=C(O)C[C@H](NC(=O)[C@@H]1CCCN(C(=O)CCC2CCNCC2)C1)c1cncc(OCCNC(=O)CN2CC(=O)[O][99Tc-]3([O]C(=O)C2)[O]C(=O)CN(CC(=O)NCCOc2cncc([C@H](CC(=O)O)NC(=O)[C@@H]4CCCN(C(=O)CCC5CCNCC5)C4)c2)CC(=O)[O]3)c1 [[Tc-99m]GP-105]
- specific uptake in the disease model (glycoprotein IIb/IIIa): high specific uptake
- target to non target ratio (glycoprotein IIb/IIIa; gamma counter, 2nd hour): 2.7
- counts per minute (CPM)/g value, left artery (glycoprotein IIb/IIIa; [2]): 23.5 CPM/g
- counts per minute (CPM)/g value, right artery (glycoprotein IIb/IIIa; [2]): 63.9 CPM/g
- background radioactivity excretion (glycoprotein IIb/IIIa; microSPECT until 4 hours): quick background radioactivity excretion effect
- Purity [1, 3]: 82.93%
- Eluent A [1, 3]: 100
- Eluent B [1, 3]: 17.07
- Purity [1, 4]: 72.53%
- Eluent A [1, 4]: 95.67
- Eluent B [1, 4]: 23.14
- Purity [1, 5]: 73.13%
- Eluent A [1, 5]: 97.07
- Eluent B [1, 5]: 23.94
- Purity [1, 6]: 71.23%
- Eluent A [1, 6]: 94.54
- Eluent B [1, 6]: 23.31
- Purity [1, 7]: 60.81%
- Eluent A [1, 7]: 93.25
- Eluent B [1, 7]: 32.44
- Purity [1, 8]: 60.99%
- Eluent A [1, 8]: 80.67
- Eluent B [1, 8]: 19.68
- Purity [1, 9]: 57.11%
- Eluent A [1, 9]: 82.64
- Eluent B [1, 9]: 25.53
- Purity [1, 10]: 82.93%
- Eluent A [1, 10]: 100
- Eluent B [1, 10]: 17.07
- Purity [1, 11]: 65.63%
- Eluent A [1, 11]: 90.76
- Eluent B [1, 11]: 25.13
- Purity [1, 12]: 60.37%
- Eluent A [1, 12]: 85.38
- Eluent B [1, 12]: 25.01
- Purity [1, 13]: 58.73%
- Eluent A [1, 13]: 95.97
- Eluent B [1, 13]: 37.24
- Purity [1, 14]: 54.3%
- Eluent A [1, 14]: 96.17
- Eluent B [1, 14]: 41.87
- Purity [1, 15]: 54.12%
- Eluent A [1, 15]: 94
- Eluent B [1, 15]: 39.88
- Purity [1, 16]: 40.17%
- Eluent A [1, 16]: 85.5
- Eluent B [1, 16]: 45.33
- Purity ([1]; Ex 4-2, cysteine, pH 5, 0 hour): 82.93%
- Eluent A ([1]; Ex 4-2, cysteine, pH 5, 0 hour): 100
- Eluent B ([1]; Ex 4-2, cysteine, pH 5, 0 hour): 17.07
- Purity [1, 17]: 92.37%
- Eluent A [1, 17]: 100
- Eluent B [1, 17]: 7.63
- Purity [1, 18]: 76.25%
- Eluent A [1, 18]: 89.07
- Eluent B [1, 18]: 12.82
- Purity [1, 19]: 87.74%
- Eluent A [1, 19]: 100
- Eluent B [1, 19]: 12.26
- Purity [1, 20]: 38.64%
- Eluent A [1, 20]: 57.3
- Eluent B [1, 20]: 18.66
- Purity [1, 21]: 77.6%
- Eluent A [1, 21]: 97.4
- Eluent B [1, 21]: 19.8
- Purity [1, 22]: 76.51%
- Eluent A [1, 22]: 98.31
- Eluent B [1, 22]: 21.8
- Purity ([1]; Ex 4-2, cysteine, pH 7, 0 hour): 90.38%
- Eluent A ([1]; Ex 4-2, cysteine, pH 7, 0 hour): 100
- Eluent B ([1]; Ex 4-2, cysteine, pH 7, 0 hour): 9.62
- Purity [1, 23]: 92.28%
- Eluent A [1, 23]: 98.65
- Eluent B [1, 23]: 6.37
- Purity [1, 24]: 85.19%
- Eluent A [1, 24]: 98.4
- Eluent B [1, 24]: 13.21
- Purity [1, 25]: 91.63%
- Eluent A [1, 25]: 97.22
- Eluent B [1, 25]: 5.59
- Purity [1, 26]: 89.39%
- Eluent A [1, 26]: 95.62
- Eluent B [1, 26]: 6.23
- Purity [1, 27]: 90.09%
- Eluent A [1, 27]: 100
- Eluent B [1, 27]: 9.91
- Purity [1, 28]: 96.79%
- Eluent A [1, 28]: 100
- Eluent B [1, 28]: 3.21
- Purity ([1]; addition of cysteine, pH of 5 (Table 8)): ≥ 70%
- Purity ([1]; addition of cysteine, pH of 7 (Table 8)): ≥ 90%
- maximum purity ([1]; no cysteine, pH 5 and pH 7 (text to Table 7)): 82.93%
